Experimental data: US9035056B2, “Pyrido[4,3-b]indole and pyrido[3,4-b]indole derivatives and methods of use” (Medivation Technologies, Inc., priority 2011, dated 2015)

Experiments:
[1] = target: T1, human recombinant histamine H1 receptor (Homo sapiens, UniProt P35367); assay: Histamine H1 radioligand binding ([3H]Pyrilamine); details: 0.1 μM compound; for inhibition at 0.1 µM: read-out: Binding data (Percentage inhibition) Histamine H1 (0.1 μM)
T1 construct: expressed in transfected cells; host or cells: CHO-K1
T1 sequence (P35367 whole entry): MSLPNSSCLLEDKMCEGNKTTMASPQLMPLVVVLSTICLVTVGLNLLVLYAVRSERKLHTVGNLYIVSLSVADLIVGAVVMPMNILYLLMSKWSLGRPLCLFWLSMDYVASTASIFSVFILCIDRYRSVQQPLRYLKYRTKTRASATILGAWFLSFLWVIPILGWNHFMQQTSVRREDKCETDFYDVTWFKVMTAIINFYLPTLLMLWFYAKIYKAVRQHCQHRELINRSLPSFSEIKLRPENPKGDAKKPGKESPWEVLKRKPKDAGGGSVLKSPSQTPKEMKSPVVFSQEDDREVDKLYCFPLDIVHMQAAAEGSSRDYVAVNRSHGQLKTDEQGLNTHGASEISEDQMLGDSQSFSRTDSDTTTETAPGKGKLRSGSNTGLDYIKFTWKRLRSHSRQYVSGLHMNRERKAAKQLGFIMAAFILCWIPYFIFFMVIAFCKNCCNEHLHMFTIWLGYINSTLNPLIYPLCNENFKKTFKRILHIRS
Experimental: To evaluate in radioligand binding assays the activity of compounds of the invention, human recombinant histamine H1 receptor expressed in Chinese hamster ovary (CHO) K1 cells (De Backer, M. et al, Biochem. Biophys. Res. Comm. 197(3):1601, 1993) in a modified Tris-HCl buffer (50 mM Tris-HCl, pH 7.4, 2 mM MgCl2, 100 mM NaCl, 250 mM Sucrose) was used. Compounds of the invention were incubated with 1.2 nM [^3H]Pyrilamine for 180 min at 25° C. Non-specific binding was estimated in the presence of 1 μM Pyrilamine. Receptor proteins were filtered and washed, the filters were then counted to determine [^3H]Pyrilamine specifically bound. Compounds were screened at 1 μM or lower, using 1% DMSO as vehicle. Biochemical assay results are presented as the percent inhibition of specific binding in Table 3.

[2] = target: T2, human recombinant adrenergic α2A receptor (Homo sapiens, UniProt P08913); assay: Adrenergic α2A radioligand binding ([3H]MK-912); details: 0.1 μM compound; for inhibition at 0.1 µM: read-out: Percentage inhibition of ligand binding, Adrenergic α2A; for Percentage inhibition of ligand binding, Adrenergic α2A: 0.1 µM
T2 construct: expressed in transfected cells; host or cells: insect Sf9 cells
T2 sequence (P08913 1-465): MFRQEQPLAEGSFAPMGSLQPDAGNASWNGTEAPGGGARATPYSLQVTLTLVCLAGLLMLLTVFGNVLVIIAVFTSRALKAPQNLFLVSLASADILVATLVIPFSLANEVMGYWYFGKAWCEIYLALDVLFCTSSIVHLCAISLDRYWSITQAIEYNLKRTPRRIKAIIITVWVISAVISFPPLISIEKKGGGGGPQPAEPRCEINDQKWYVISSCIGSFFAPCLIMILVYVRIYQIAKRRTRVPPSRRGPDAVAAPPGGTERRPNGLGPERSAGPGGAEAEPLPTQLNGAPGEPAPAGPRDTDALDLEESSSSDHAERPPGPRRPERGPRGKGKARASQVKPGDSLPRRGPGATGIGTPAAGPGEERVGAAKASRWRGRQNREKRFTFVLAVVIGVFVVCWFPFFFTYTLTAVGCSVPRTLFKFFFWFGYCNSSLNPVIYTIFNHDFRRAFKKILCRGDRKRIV
Experimental: To evaluate in radioligand binding assays the activity of compounds of the invention, human recombinant adrenergic α2A receptor expressed in insect Sf9 cells (Uhlen, S. et al, J. Pharmacol. Exp. Ther. 271:1558, 1994) in a modified Tris-HCl buffer (50 mM Tris-HCl, pH 7.4, 12.5 mM MgCl2, 2 mM EDTA) was used. Compounds of invention were incubated with 1 nM [^3H]MK-912 for 60 min at 25° C. MK-912 is (2S-trans)-1,3,4,5′,6,6′,7,12b-octahydro-1′,3′-dimethyl-spiro[2H-benzofuro[2,3-a]quinolizine-2,4′(1′H)-pyrimidin]-2′(3′H)-one hydrochloride Non-specific binding was estimated in the presence of 10 μM WB-4101 (2-(2,6-Dimethoxyphenoxyethyl)aminomethyl-1,4-benzodioxane hydrochloride). Receptor proteins were filtered and washed, the filters were then counted to determine [^3H]MK-912 specifically bound. Compounds were screened at 1 μM or lower, using 1% DMSO as vehicle. Biochemical assay results are presented as the percent inhibition of specific binding in Table 3.

[3] = target: T3, human recombinant adrenergic α2B receptor (Homo sapiens, UniProt P18089); assay: Adrenergic α2B radioligand binding ([3H]Rauwolscine); details: for inhibition at 0.1 µM: 0.1 μM compound; for Percentage inhibition of ligand binding, Adrenergic α2B: 0.03 µM
T3 construct: expressed in transfected cells; host or cells: CHO-K1
T3 sequence (P18089 1-450): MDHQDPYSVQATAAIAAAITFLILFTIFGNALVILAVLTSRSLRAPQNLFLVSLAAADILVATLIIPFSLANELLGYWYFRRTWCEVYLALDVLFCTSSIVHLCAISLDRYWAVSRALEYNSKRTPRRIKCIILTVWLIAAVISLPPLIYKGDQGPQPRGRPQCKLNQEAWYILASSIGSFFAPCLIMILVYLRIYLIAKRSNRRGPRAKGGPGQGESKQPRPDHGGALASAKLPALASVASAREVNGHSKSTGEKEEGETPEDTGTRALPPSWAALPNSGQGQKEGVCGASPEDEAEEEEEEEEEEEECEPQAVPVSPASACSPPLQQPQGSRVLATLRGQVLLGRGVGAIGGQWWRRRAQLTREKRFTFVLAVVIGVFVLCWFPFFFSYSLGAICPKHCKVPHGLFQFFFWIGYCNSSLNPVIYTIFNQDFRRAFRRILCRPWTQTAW
Experimental: To evaluate in radioligand binding assays the activity of compounds of the invention, human recombinant adrenergic α2B receptor expressed in Chinese hamster ovary (CHO) K1 cells (Uhlen, S. et al, Eur. J. Pharmacol. 343(1):93, 1998) in a modified Tris-HCl buffer (50 mM Tris-HCl, pH 7.4, 12.5 mM MgCl2, 1 mM EDTA, 0.2% BSA) was used. Compounds of the invention were incubated with 2.5 nM [^3H]Rauwolscine for 60 min at 25° C. Non-specific binding was estimated in the presence of 10 μM Prazosin. Receptor proteins were filtered and washed, the filters were then counted to determine [^3H]Rauwolscine specifically bound. Compounds were screened at 1 μM or lower, using 1% DMSO as vehicle. Biochemical assay results are presented as the percent inhibition of specific binding in Table 3.

[4] = read-out: Percentage inhibition of ligand binding, Adrenergic α2B

Cc1ccc2c(c1)c1c(n2/C=C2/CCCc3ccccc32)CCN(C)C1 [i-2]
inhibition at 0.1 µM [1]: 28%
inhibition at 0.1 µM [2]: 98%
inhibition at 0.1 µM [3, 4]: 81%

Cc1ccc2c(c1)c1c(n2CC2(O)CCCc3cnccc32)CCN(C)C1 (single isomer, unassigned) [ii-74b]
Binding data (Percentage inhibition) Histamine H1 (0.1 μM) [1]: 11%
Percentage inhibition of ligand binding, Adrenergic α2A [2]: 12%
Percentage inhibition of ligand binding, Adrenergic α2B ([3]; 0.03 μM compound): 69%

Cc1ccc2c(c1)c1c(n2CC2(O)CCCc3cnccc32)CCN(C)C1 (single isomer, unassigned) [ii-74a]
Binding data (Percentage inhibition) Histamine H1 (0.1 μM) [1]: 1%
inhibition at 0.1 µM [2]: 14%
Percentage inhibition of ligand binding, Adrenergic α2B ([3]; 0.03 μM compound): 22%

Cc1ccc2c(c1)c1c(n2/C=C2\CCCc3ccccc32)CCN(C)C1 [i-3]
inhibition at 0.1 µM [1]: 32%
inhibition at 0.1 µM [2]: 92%
inhibition at 0.1 µM [3, 4]: 57%

Cc1ccc2c(c1)c1c(n2CC2(O)CCCc3ccncc32)CCN(C)C1 (single isomer, unassigned) [ii-113a]
Binding data (Percentage inhibition) Histamine H1 (0.1 μM) [1]: 13%
inhibition at 0.1 µM [2]: 9%
Percentage inhibition of ligand binding, Adrenergic α2B ([3]; 0.03 μM compound): 23%

Cc1ccc2c(c1)c1c(n2CC2(O)CCCc3ncccc32)CCN(C)C1 (single isomer, unassigned) [ii-112b]
Binding data (Percentage inhibition) Histamine H1 (0.1 μM) [1]: 13%
Percentage inhibition of ligand binding, Adrenergic α2A [2]: 4%
Percentage inhibition of ligand binding, Adrenergic α2B ([3]; 0.03 μM compound): 40%

Cc1ccc2c(c1)c1c(n2CC2(O)CCCc3ncccc32)CCN(C)C1 (single isomer, unassigned) [ii-112a]
Binding data (Percentage inhibition) Histamine H1 (0.1 μM) [1]: 4%
Percentage inhibition of ligand binding, Adrenergic α2A [2]: 15%
inhibition at 0.03 µM ([3]; 0.03 μM compound, read-out: Percentage inhibition of ligand binding, Adrenergic α2B): 58%
